Legend:
[1] = Thorough QT study, plasma pharmacokinetics; type: in vivo, human; details: healthy subjects
From the text: Blood samples for PK determination were drawn at the same time points immediately after the ECG extractions.

[2] = system: heart rate in healthy subjects; assay: Thorough QT study, placebo-corrected change-from-baseline HR (ΔΔHR); type: in vivo, human
[3] = system: cardiac repolarization (QTcF) in healthy subjects; details: human, in vivo
prolactin = assay: Prolactin concentration (pharmacodynamic evaluation), Phase 2a; type: in vivo, human; details: Safety Population
From the text: Table 14 summarizes prolactin concentration and change from baseline by scheduled time point and treatment for the Safety Population.

[4] = system: adults with idiopathic or diabetic gastroparesis; assay: Clinical Grading Assessment Scale / CPGAS, Day 14, Phase 2a; type: in vivo, human; details: Day 14, ITT; for CPGAS score, investigator, mean (SD) / CPGAS score, subject, mean (SD): scale +7 to −7
From the text: For assessment of global clinical response, the following question was utilized at Day 14: “In thinking about the last 2 weeks, how would you say your stomach/gastroparesis-related problems/symptoms have been compared to the period before you started treatment on this study?” Responses were the following: improved, no change, or worsened. Subjects were asked to quantify their therapeutic response using the Clinical Patient Grading Assessment Scale. Subjects picked a number over a range (+7=completely better; 0=no change; −7=very much worse) that best answered the question.

[2H]c1c([2H])c([2H])c2c([nH]c(=O)n2CCCN2CCC(n3c(=O)[nH]c4cc(Cl)ccc43)CC2)c1[2H] [Deudomperidone, 1-{3-[4-(5-chloro-2-oxo-2,3-dihydro-1H-1,3-benzodiazol-1-yl)piperidin-1yl]propyl}-2,3-dihydro(4,5,6,7-D4)-1H-1,3-benzodiazol-2-one]
time of highest mean plasma concentration of deuterated domperidone ([1]; 30 mg single dose): 1.5 hours post-dose | time of highest mean plasma concentration of deuterated domperidone ([1]; 100 mg single dose): 2 hours post-dose | bradycardic outliers ([2]; 30 mg treatment group, at 5 time points): 1 | ΔΔHR LS Mean ([2]; 0.5 H Post Dose, 30 mg CIN-102 (Treatment A)): −0.5 bpm | ΔΔHR LS Mean ([2]; 0.5 H Post Dose, 100 mg CIN-102 (Treatment B)): −0.5 bpm | ΔΔHR LS Mean ([2]; 1 H Post Dose, 30 mg CIN-102 (Treatment A)): −1.4 bpm | ΔΔHR LS Mean ([2]; 1 H Post Dose, 100 mg CIN-102 (Treatment B)): −1.1 bpm | ΔΔHR LS Mean ([2]; 1.5 H Post Dose, 30 mg CIN-102 (Treatment A)): −1.0 bpm | ΔΔHR LS Mean ([2]; 1.5 H Post Dose, 100 mg CIN-102 (Treatment B)): −0.7 bpm | ΔΔHR LS Mean ([2]; 2 H Post Dose, 30 mg CIN-102 (Treatment A)): 0.4 bpm | ΔΔHR LS Mean ([2]; 2 H Post Dose, 100 mg CIN-102 (Treatment B)): 0.2 bpm | ΔΔHR LS Mean ([2]; 2.5 H Post Dose, 30 mg CIN-102 (Treatment A)): −0.7 bpm | ΔΔHR LS Mean ([2]; 2.5 H Post Dose, 100 mg CIN-102 (Treatment B)): −0.8 bpm | ΔΔHR LS Mean ([2]; 3 H Post Dose, 30 mg CIN-102 (Treatment A)): −1.4 bpm | ΔΔHR LS Mean ([2]; 3 H Post Dose, 100 mg CIN-102 (Treatment B)): −1.0 bpm | ΔΔHR LS Mean ([2]; 4 H Post Dose, 30 mg CIN-102 (Treatment A)): 0.0 bpm | ΔΔHR LS Mean ([2]; 4 H Post Dose, 100 mg CIN-102 (Treatment B)): 0.1 bpm | ΔΔHR LS Mean ([2]; 5 H Post Dose, 30 mg CIN-102 (Treatment A)): −0.3 bpm | ΔΔHR LS Mean ([2]; 5 H Post Dose, 100 mg CIN-102 (Treatment B)): −0.8 bpm | ΔΔHR LS Mean ([2]; 6 H Post Dose, 30 mg CIN-102 (Treatment A)): −0.2 bpm | ΔΔHR LS Mean ([2]; 6 H Post Dose, 100 mg CIN-102 (Treatment B)): −0.5 bpm | ΔΔHR LS Mean ([2]; 8 H Post Dose, 30 mg CIN-102 (Treatment A)): 0.7 bpm | ΔΔHR LS Mean ([2]; 8 H Post Dose, 100 mg CIN-102 (Treatment B)): −0.9 bpm | ΔΔHR LS Mean ([2]; 12 H Post Dose, 30 mg CIN-102 (Treatment A)): −0.5 bpm | ΔΔHR LS Mean ([2]; 12 H Post Dose, 100 mg CIN-102 (Treatment B)): −0.8 bpm | ΔΔHR LS Mean ([2]; 24 H Post Dose, 30 mg CIN-102 (Treatment A)): 1.1 bpm | ΔΔHR LS Mean ([2]; 24 H Post Dose, 100 mg CIN-102 (Treatment B)): 0.1 bpm | ΔΔHR LS Mean ([2]; 36 H Post Dose, 30 mg CIN-102 (Treatment A)): 0.5 bpm | ΔΔHR LS Mean ([2]; 36 H Post Dose, 100 mg CIN-102 (Treatment B)): −0.4 bpm | ΔΔHR LS Mean ([2]; 48 H Post Dose, 30 mg CIN-102 (Treatment A)): 0.9 bpm | ΔΔHR LS Mean ([2]; 48 H Post Dose, 100 mg CIN-102 (Treatment B)): 0.5 bpm | tachycardic outliers ([2]; across treatment periods): no tachycardic outliers | mean ΔΔHR, by-time point analysis ([2]; both dose levels, all post-dose time points): below 10 bpm | estimated slope of concentration-QTc relationship, Model B [3]: 0.79 ms per ng/mL | plasma concentration up to which an effect on ΔΔQTcF exceeding 10 ms can be excluded [3]: ~92 ng/mL | treatment effect-specific intercept, Model B [3]: -0.03 ms | Prolactin, Day 3, mean (SD) (prolactin; 5 mg BID): 396.7 (185.83) mIU/L | Prolactin, Day 7, mean (SD) (prolactin; 5 mg BID): 622.9 (317.61) mIU/L | Prolactin, Day 10, mean (SD) (prolactin; 5 mg BID): 449.7 (147.64) mIU/L | Prolactin, Day 14, mean (SD) (prolactin; 5 mg BID): 578.0 (205.82) mIU/L | Prolactin, change from baseline to Day 3, mean (SD) (prolactin; 5 mg BID): 143.4 (124.58) mIU/L | Prolactin, change from baseline to Day 7, mean (SD) (prolactin; 5 mg BID): 369.7 (263.19) mIU/L | Prolactin, change from baseline to Day 10, mean (SD) (prolactin; 5 mg BID): 196.4 (99.96) mIU/L | Prolactin, change from baseline to Day 14, mean (SD) (prolactin; 5 mg BID): 324.8 (187.12) mIU/L | Prolactin, Day 3, mean (prolactin; 10 mg BID): 570.2 mIU/L | Prolactin, Day 7, mean (prolactin; 10 mg BID): 640.0 mIU/L | Prolactin, Day 10, mean (prolactin; 10 mg BID): 734.9 mIU/L | Prolactin, Day 14, mean (prolactin; 10 mg BID): 774.2 mIU/L | Prolactin, change from baseline to Day 3 (prolactin; 10 mg BID): 351.5 mIU/L | Prolactin, change from baseline to Day 7 (prolactin; 10 mg BID): 421.2 mIU/L | Prolactin, change from baseline to Day 10 (prolactin; 10 mg BID): 512.1 mIU/L | Prolactin, change from baseline to Day 14 (prolactin; 10 mg BID): 555.5 mIU/L | Prolactin, change from baseline to follow-up/early termination (prolactin; 10 mg BID, n = 2): −32.5 mIU/L | Prolactin, follow-up/early termination, mean (prolactin; 10 mg BID, n = 2): 195.0 mIU/L | Prolactin, Day 3, mean (prolactin; 20 mg QD): 830.5 mIU/L | Prolactin, Day 7, mean (prolactin; 20 mg QD): 1219.5 mIU/L | Prolactin, Day 10, mean (prolactin; 20 mg QD): 1264.1 mIU/L | Prolactin, Day 14, mean (prolactin; 20 mg QD): 1251.9 mIU/L | Prolactin, change from baseline to Day 3 (prolactin; 20 mg QD): 522.1 mIU/L | Prolactin, change from baseline to Day 7 (prolactin; 20 mg QD): 911.1 mIU/L | Prolactin, change from baseline to Day 10 (prolactin; 20 mg QD): 955.8 mIU/L | Prolactin, change from baseline to Day 14 (prolactin; 20 mg QD): 943.6 mIU/L | Clinical Grading Assessment Scale, investigator response: Improved ([4]; 5 mg BID, N′ = 9): 6 (66.7) n (%) | Clinical Grading Assessment Scale, investigator response: No change ([4]; 5 mg BID, N′ = 9): 3 (33.3) n (%) | Clinical Grading Assessment Scale, investigator response: Worsened ([4]; 5 mg BID, N′ = 9): 0 (0.0) n (%) | Clinical Grading Assessment Scale, subject response: Improved ([4]; 5 mg BID, N′ = 9): 5 (55.6) n (%) | Clinical Grading Assessment Scale, subject response: No change ([4]; 5 mg BID, N′ = 9): 4 (44.4) n (%) | Clinical Grading Assessment Scale, subject response: Worsened ([4]; 5 mg BID, N′ = 9): 0 (0.0) n (%) | CPGAS score, investigator, mean (SD) ([4]; 5 mg BID): 2.2 (2.05) | CPGAS score, subject, mean (SD) ([4]; 5 mg BID): 2.1 (2.26) | Clinical Grading Assessment Scale, subject response: Improved ([4]; 10 mg BID, N′ = 23): 17 (73.9) n (%) | Clinical Grading Assessment Scale, subject response: No change ([4]; 10 mg BID, N′ = 23): 5 (21.7) n (%) | Clinical Grading Assessment Scale, subject response: Worsened ([4]; 10 mg BID, N′ = 23): 1 (4.3) n (%) | Clinical Grading Assessment Scale, investigator response: Improved ([4]; 10 mg BID, N′ = 30): 22 (73.3) n (%) | Clinical Grading Assessment Scale, investigator response: No change ([4]; 10 mg BID, N′ = 30): 8 (26.7) n (%) | Clinical Grading Assessment Scale, investigator response: Worsened ([4]; 10 mg BID, N′ = 30): 0 (0.0) n (%) | CPGAS score, investigator, mean (SD) ([4]; 10 mg BID): 2.5 (1.98) | CPGAS score, subject, mean (SD) ([4]; 10 mg BID): 3.0 (2.70) | Clinical Grading Assessment Scale, subject response: Improved ([4]; 20 mg QD, N′ = 14): 9 (64.3) n (%) | Clinical Grading Assessment Scale, subject response: No change ([4]; 20 mg QD, N′ = 14): 5 (35.7) n (%) | Clinical Grading Assessment Scale, subject response: Worsened ([4]; 20 mg QD, N′ = 14): 0 (0.0) n (%) | Clinical Grading Assessment Scale, investigator response: Improved ([4]; 20 mg QD, N′ = 15): 11 (73.3) n (%) | Clinical Grading Assessment Scale, investigator response: No change ([4]; 20 mg QD, N′ = 15): 4 (26.7) n (%) | Clinical Grading Assessment Scale, investigator response: Worsened ([4]; 20 mg QD, N′ = 15): 0 (0.0) n (%) | CPGAS score, investigator, mean (SD) ([4]; 20 mg QD): 2.9 (2.26) | CPGAS score, subject, mean (SD) ([4]; 20 mg QD): 2.9 (2.62)

— patent publication US20250268884A1, “Deuterated Domperidone for Treating Gastroparesis” (CinDome Pharma, Inc., priority 2022, published 2025)
